This is an account of results in patent US9198886B2, “Use of 2,5-dihydroxybenzene for the treatment of ocular diseases” (priority 2006, dated 2015).

Assay [1] relates to human retinal endothelial cells (HREC). The assay can be described thus: Proliferation of human retinal endothelial cells (crystal violet). The assay is classed as cell-based. Particulars: 72 hours. Here is the method: (§1) Primary cultures of human retinal endothelial cells (HREC) were used. Cells were obtained from Cell Systems (Virginia, USA) and subcultured with CSC complete medium (Cell Systems). Cells at 2 to 5 passages were seeded in 24-well plates at 7,500 cells/well density and, once attached, the cells were treated or not treated (controls) with 2A-5HBS (500 and 1000 μM) or 5A-2HBS (500 and 1000 μM) and they were allowed to proliferate for 72 hours, with daily medium changes. After that, the proliferation of HREC was evaluated by staining the fixed cells with crystal violet. The number of cells is proportional to the amount of retained dye, which was spectrophotometrically determined by measuring absorbance at 595 nm after removing the dye from the cells. Data are expressed as the percentage of absorbance at 595 nm obtained in control conditions. Data were obtained from two different experiments performed in triplicate.
as §1, with “2,5-DHCME (50” for “2A-5HBS (500”, “100” for “1000 μM) or 5A-2HBS (500 and 1000”, “changes. Under the same conditions, other cultures were treated with calcium 2,5-dihydroxybenzenesulfonate (DHBS; 100 μM) for comparison.” for “changes.”

Assay [2] deals with corneal neovascularization. Description: Topical solution in a patient with corneal neovascularization. The assay is classed as in vivo, human. To be noted: 5% solution of potassium salt, 4 drops a day topically, 19 days, one patient. From the text: Photographs showing the presence of corneal neovascularization in a patient before being treated (A) and after 19 days of topical application of a solution containing 5% of potassium 2,5-dihydroxybenzoate (B). The treatment consisted of daily topical application of 4 drops of such solution.
4 drops a day were topically applied in a patient that presented a corneal neovascularization process refractory to any type of previous treatment.

For another assay, the system named is rat glioma C6 cells. The assay can be described thus: Proliferation of rat glioma C6 cells (crystal violet). It counts as cell-based. To be noted: 500 μM, 48 h. Here is the method: FIG. 23. […] 5A-2HBS and 2A-5HBS were administered or not (control) after seeding C6 cells in 24 well plates (10^4 per well) until they were fixed 48 hours later. Data are expressed as the mean±SEM of the percentage of absorbance at 595 nm obtained in control cultures, which is proportional to the number of cells stained with crystal violet. Data were obtained from 3 cultures for each treatment and 6 control cultures.
The cell line used was the C6 cell line. The cells were cultured as previously described (Cuevas P et al., Neurol Res 2005, 27:797-800). The cells were cultured as adherent cells in Dulbecco's modified Eagle's medium, supplemented with 7.5% (v/v) fetal bovine serum, 10 μg/ml streptomycin and 10 units/ml penicillin. The tumor cells were seeded in 24-well plates at a density of 10,000 cells/well, and were incubated at 37° C. in a humidified chamber with 5% CO2. Once adhered, the cells were treated or not (controls) with (5A-2HBS) (500 μM) or (2A-5HBS) (500 μM) and they were allowed to proliferate for 48 h. After this time the glioma cell proliferation was evaluated by means of staining the fixed cells with crystal violet. The number of cells is proportional to the amount of retained dye, which was determined spectrophotometrically by measuring the absorbance at 595 nm once the dye was extracted from the cells.

In assay [3] the target is T1, fibroblast growth factor-1 (FGF-1) (Homo sapiens, UniProt P05230). Description: Co-crystal structure with fibroblast growth factor-1. The assay is classed as binding. To be noted: for binding site on FGF-1: crystal diffraction of the complex; for acetoxyl groups of the compound when bound to FGF-1: crystal diffraction, electron density contoured at 1σ. The text has this: FIG. 24. 2-acetoxy-5-hydroxybenzenesulfonic acid co-crystallized with fibroblast growth factor-1. […] The compound occupies a place that is very close to that described occupied by 2,5-dihydroxybenzenesulfonic acid, the aromatic ring of which forms a cation-π bond with the N^ε group of lysine 132, which is marked in panel A as reference. […] In panels A and B, the protein surface is colored according to its electrostatic potential (light grey: negative charge; dark grey: positive charge; white: lack of charge).
FIG. 25. 5-acetoxy-2-hydroxybenzenesulfonic acid co-crystallized with fibroblast growth factor-1. […] The compound occupies a place that is very close to that described occupied by 2,5-dihydroxybenzenesulfonic acid, the aromatic ring of which forms a cation-π bond with the N^ε group of lysine 132, which is marked in panel A as reference. […] In panels A and B, the protein surface is colored according to its electrostatic potential (light grey: negative charge; dark grey: positive charge; white: lack of charge).
FIG. 26. 2,5-diacetoxybenzenesulfonic acid co-crystallized with fibroblast growth factor-1. […] The compound occupies a place that is very close to that described occupied by 2,5-dihydroxybenzenesulfonic acid, the aromatic ring of which forms a cation-π bond with the N^ε group of lysine 132, which is marked in panel A as reference. […] In panels A and B, the protein surface is colored according to its electrostatic potential (light grey: negative charge; dark grey: positive charge; white: lack of charge).
Based on the crystal diffraction of the FGF-1:2-acetoxy-5-hydroxybenzene sulfonic acid, FGF-1:5-acetoxy-2-hydroxybenzene sulfonic acid and FGF-1:2,5-diacetoxybenzene sulfonic acid complexes, the structures of the complexes were calculated and represented. FIGS. 24, 25 and 26, which show the surface of the dyed protein according to its electrostatic potential (light grey: negative charge; dark grey: positive charge; white: lack of charge), show the manner in which 2-acetoxy-5-hydroxybenzene sulfonic acid, 5-acetoxy-2-hydroxybenzene sulfonic acid and 2,5-diacetoxybenzene sulfonic acid interact, respectively, with FGF-1.

Assay [4] deals with T1, fibroblast growth factor-1 (FGF-1). Description: FGF-1 induced mitogenesis in quiescent Balb/c 3T3 fibroblasts. To be noted: potassium salts, except 2-acetoxy-5-hydroxybenzene sulfonate as calcium salt. It counts as cell-based. Here is the method: The evaluated compounds were used in the form of potassium salt, except in the first case in which calcium salt was used. The experiments were carried out as described in Fernández-Tornero C et al. J Biol Chem, 2003.

T1 sequence (P05230 whole entry, species assumed): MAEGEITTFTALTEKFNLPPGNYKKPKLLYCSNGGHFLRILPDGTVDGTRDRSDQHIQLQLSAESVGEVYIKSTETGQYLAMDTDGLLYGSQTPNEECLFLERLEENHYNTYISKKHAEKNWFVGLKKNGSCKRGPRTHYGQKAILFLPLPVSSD

With `COC(=O)C=Cc1cc(O)ccc1O` [2,5-DHCME, 2,5-dihydroxycinnamic acid methyl ester], the HREC proliferation entry in assay [1] (50 μM) is “significant inhibition of HREC proliferation”; in assay [1] (100 μM, DHBS as calcium salt), “significant inhibition of HREC proliferation”.

Take `O=C([O-])c1cc(O)ccc1O.[K+]` [2,5-dihydroxybenzoate, potassium 2,5-dihydroxybenzoate]: the “degree of corneal vascularization” value in assay [2] was “remarkable reduction in the degree of corneal vascularization”.

Regarding `CC(=O)Oc1ccc(O)cc1S(=O)(=O)[O-].[K+]` [2A-5HBS, potassium 2-acetoxy-5-hydroxybenzene sulfonate], the “C6 glioma cell proliferation” value in the assay with rat glioma C6 cells was “inhibition of rat glioma cell proliferation”. Moreover, the HREC proliferation result in assay [1] (500 μM) and in assay [1] (1000 μM) was “significant inhibition of HREC proliferation” throughout. The “binding site on FGF-1” value in assay [3] is recorded as “very close to the one that has been described occupied by 2,5-dihydroxybenzene sulfonic acid”. Moreover, the “acetoxyl groups of the compound when bound to FGF-1” value in assay [3] was “conserve the acetoxyl groups”. The FGF-1 induced mitogenesis result in assay [4] is recorded as “Inhibition of FGF-1 induced mitogenesis was observed”.

With `CC(=O)Oc1ccc(O)c(S(=O)(=O)[O-])c1.[K+]` [5A-2HBS, potassium 5-acetoxy-2-hydroxybenzene sulfonate], the “C6 glioma cell proliferation” value in the assay on rat glioma C6 cells is reported as “inhibition of rat glioma cell proliferation”. In assay [3], the “binding site on FGF-1” value is recorded as “very close to the one that has been described occupied by 2,5-dihydroxybenzene sulfonic acid” and the “acetoxyl groups of the compound when bound to FGF-1” value was “conserve the acetoxyl groups”. In addition, the FGF-1 induced mitogenesis entry in assay [4] is listed as “Inhibition of FGF-1 induced mitogenesis was observed”.
